For series [1] the following is noted: cited from earlier work.
The conditions of series [2]: administered concomitantly with an itraconazole capsule formulation; cited from earlier work.
The conditions of series [3]: 40 mg asciminib b.i.d., cited from earlier work.
For series [4] the following is noted: weak base; cited from earlier work.
The format of series [5] is in vivo, human. Particulars: for AUC(0-inf) / AUC(0-t) / Cmax: human, plasma, 40 mg, adjusted G mean, linear mixed effects model; for AUC(0-inf): AUCinf; for AUC(0-t): AUClast.
Series [6] is classed as in vivo, human. Particulars: for decrease in Cmax: with rabeprazole vs asciminib alone.
The conditions of series [7]: aqueous solution; cited from earlier work.
The format of series [8] is in vitro ADME. Particulars: for dissolution rate: 40 mg asciminib, 900 ml, 37°C.
Series [9] can be described thus: In vitro binding constant of asciminib and cyclodextrin. It counts as physicochemical.
[10] abbreviates: oral, Cohort 2, asciminib ± quinidine.
Where [11] appears, read: oral, Cohort 3, asciminib ± rifampicin.
Where [12] appears, read: oral, Cohort 5, asciminib ± clarithromycin.
[13] abbreviates: po, Cohort 1, asciminib ± itraconazole (oral solution).
The mark [14] stands for this setting: with clarithromycin vs asciminib alone, cohort 5.
[15] abbreviates: with itraconazole (oral solution) vs asciminib alone, cohort 1.
Setting [16] is: with itraconazole oral solution vs asciminib alone.
[17] abbreviates: with quinidine vs asciminib alone, cohort 2.
[18] abbreviates: with rifampicin vs asciminib alone, cohort 3.

Like-named read-outs stand apart in the source and are kept apart here.

`C[C@H]1CN(C2COC2)CCN1c1ccc(Nc2cc(-c3ccnc(N4CCn5c(cc6c5CC(C)(C)C6)C4=O)c3CO)cn(C)c2=O)nc1` [fenebrutinib]: the “in vitro binding constant with cyclodextrin” value in [1] was 200,000 /M.
As to `CCc1cc(/C(C)=N/OCc2ccc(C3CCCCC3)c(C(F)(F)F)c2)ccc1CN1CC(C(=O)O)C1` [siponimod], the decrease in exposure in [2] is 10%–24%.
`O=C(Nc1ccc(OC(F)(F)Cl)cc1)c1cnc(N2CC[C@@H](O)C2)c(-c2ccn[nH]2)c1` [Asciminib]: the “AUC0–12 h at steady-state, G mean” value was 6450 ng·h/mL in series [3] (Japanese subjects (n = 5), GCV% 22.8) and 5370 ng·h/mL in series [3] (non-Japanese subjects (n = 8), GCV% 39.4). For the same compound, in series [4], the pK a is listed as 4.0. Also, the AUC(0-inf) worked out at 6750 ng·h/mL in series [5] (setting [10]); 5630 ng·h/mL in [5] (setting [11]); 5740 ng·h/mL in series [5] (setting [12]); 7000 ng·h/mL in series [5] (setting [13]); 9850 ng·h/mL in [6] (human, plasma, oral, 40 mg); 9850 ng·h/mL in series [6] (human, plasma, po, 40 mg). The AUC(0-t) in series [5] (setting [10]) is 6700 ng·h/mL; in series [5] (setting [11]) it was 5400 ng·h/mL; in series [5] (setting [12]), 5670 ng·h/mL; in series [5] (setting [13]), 6950 ng·h/mL; in series [6] (human, plasma, oral, 40 mg) it was 9200 ng·h/mL; in [6] (human, plasma, po, 40 mg) it was 9200 ng·h/mL. Moreover, the Cmax came to 618 ng/mL in [5] (setting [10]); 559 ng/mL in series [5] (setting [11]); 679 ng/mL in series [5] (setting [13]); 943 ng/mL in series [6] (human, plasma, oral, 40 mg); 943 ng/mL in series [6] (human, plasma, po, 40 mg). Moreover, the “increase in asciminib exposure” value in series [5] (with clarithromycin vs asciminib alone) was ~ 35%; in series [5] (with itraconazole capsule vs asciminib alone), ~ 3%. The “increase in AUCinf” value in [5] (setting [14]) is on record as 36%. The “increase in AUClast” value in [5] (setting [14]) is recorded as 37%. The “increase in Cmax” value in [5] (setting [14]) was 19%; in series [5] (setting [18]), 9%. For the same compound, the “decrease in G mean of AUCinf” value in [5] (setting [15]) was 40.2%. Moreover, the “decrease in G mean of AUClast” value in series [5] (setting [15]) is reported as 41.2%. In addition, the “decrease in asciminib Cmax” value was ~ 50% in series [5] (setting [16]) and 50.1% in [5] (with itraconazole oral solution vs asciminib alone, listed as asciminib). In series [5] (setting [16]), the “decrease in asciminib exposure (AUC)” value was ~ 40%. Moreover, in series [5] (with quinidine vs asciminib alone), the “decrease in asciminib AUC” value was 13–16%. The results for the “decrease in AUCinf” value in series [5] (setting [17]) and in series [5] (setting [18]) were 12.9% and 14.9%, respectively. Also, the entries for the “decrease in AUClast” value in [5] (setting [17]) and in [5] (setting [18]) were 16.0% and 12.7%, respectively. The figures for the “decrease in Cmax” value in series [5] (setting [17]), in series [6] and in series [6] (listed as asciminib) were 11.3%, 9% and ~ 9%, respectively. For the same compound, the “decrease in asciminib AUC (exposure)” value in [5] (with rifampicin vs asciminib alone) is on record as 13–15%; in [5] (with rifampicin vs asciminib alone, listed as asciminib), 15%. Further, the half-life (as a rule, the time needed for the level to fall by half in the phase considered) in series [6] (human, plasma, po, 40 mg) was 12.6 h. Also, in series [7], the pH-dependent solubility entry is “high at acidic pH and decreases with increasing pH”. Also, the dissolution rate in [8] (FaSSIF V2 media alone) was 87%; in series [8] (FaSSIF V2 media with added cyclodextrin), 105%. Moreover, the flux in series [8] (FaSSIF V2 media alone, acceptor volume 12 ml) is 1.29 µg/min. Also, the calculated flux in series [8] (FaSSIF V2 media alone, membrane area 3.88 cm^2) is given as 0.332 μg/min*cm^2; in [8] (FaSSIF V2 plus cyclodextrin), 0.071 μg/min*cm^2. In addition, the flux rate in [8] (FaSSIF V2 plus cyclodextrin) came out at 0.28 µg/min. Moreover, in series [8] (by cyclodextrin), the “decrease of asciminib flux through a lipid membrane” value is on record as ~ 80%. Further, in series [9] (FaSSIF V2 and 0.3× FeSSIF V2 vs buffer), the “drop in binding constant” value is reported as ~ 65 fold. Besides, the binding to cyclodextrin entry in [9] (acidic pH of FaSSGF and high bile component concentration of FeSSIF V2) is “practically no binding”.
